Reference: patent US20250281498A1, “FUSED AMINO PYRIMIDINE COMPOUNDS FOR TREATMENT OF SYNUCLEINOPATHIES AND TDP-43 PROTEINOPATHIES” (Ovid Therapeutics Inc., priority 2024, published 2025)

Biological target: T1, KCC2-S940A (Homo sapiens, UniProt Q9H2X9, S963A)
T1 construct: expressed in transfected cells; host or cells: HEK-293
T1 sequence (Q9H2X9 1-1116 isoform Q9H2X9-2 S940A): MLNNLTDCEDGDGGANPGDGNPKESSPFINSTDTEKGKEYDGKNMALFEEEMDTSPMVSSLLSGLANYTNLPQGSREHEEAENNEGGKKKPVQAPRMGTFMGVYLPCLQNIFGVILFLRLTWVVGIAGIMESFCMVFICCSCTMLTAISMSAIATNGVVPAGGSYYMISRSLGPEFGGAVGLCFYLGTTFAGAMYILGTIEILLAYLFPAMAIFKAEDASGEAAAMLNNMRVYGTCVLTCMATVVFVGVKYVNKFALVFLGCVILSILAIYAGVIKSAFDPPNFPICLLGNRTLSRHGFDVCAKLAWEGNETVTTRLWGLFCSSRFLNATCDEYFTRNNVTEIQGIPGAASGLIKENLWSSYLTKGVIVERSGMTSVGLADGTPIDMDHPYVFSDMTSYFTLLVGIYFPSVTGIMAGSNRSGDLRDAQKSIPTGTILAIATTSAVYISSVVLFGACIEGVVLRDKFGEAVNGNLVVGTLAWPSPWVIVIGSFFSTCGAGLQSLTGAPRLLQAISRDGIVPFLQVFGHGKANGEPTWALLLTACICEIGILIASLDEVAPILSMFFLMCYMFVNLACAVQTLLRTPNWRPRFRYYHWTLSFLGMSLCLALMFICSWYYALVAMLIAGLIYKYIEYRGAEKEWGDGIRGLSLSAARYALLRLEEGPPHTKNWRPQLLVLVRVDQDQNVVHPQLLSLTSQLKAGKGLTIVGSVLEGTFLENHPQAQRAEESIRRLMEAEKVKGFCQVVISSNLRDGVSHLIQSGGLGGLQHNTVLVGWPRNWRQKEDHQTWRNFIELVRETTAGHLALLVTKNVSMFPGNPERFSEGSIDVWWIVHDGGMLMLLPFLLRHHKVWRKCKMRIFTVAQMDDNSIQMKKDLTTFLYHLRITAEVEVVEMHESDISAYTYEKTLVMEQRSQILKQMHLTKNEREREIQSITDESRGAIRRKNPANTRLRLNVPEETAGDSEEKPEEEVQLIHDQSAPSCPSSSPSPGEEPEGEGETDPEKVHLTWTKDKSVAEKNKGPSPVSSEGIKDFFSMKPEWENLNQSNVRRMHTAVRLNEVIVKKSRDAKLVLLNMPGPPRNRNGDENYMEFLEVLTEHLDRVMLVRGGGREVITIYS
Experiment: TI+ flux assay, HEK-293 cells expressing KCC2-S940A
Assay type: cell-based
Procedure: FLIPR TI Flux assay. HEK-293 cells were washed with HBSS, and then incubated with loading buffer containing TI sensitive fluorescent dye (https://www.moleculardevices.com), 20 μM bumetanide 20 μM ouabain and 2.5 mM probenecid for 1 h at room temperature (RT) under control conditions or with drugs in the dark using a FlexStation 3 microplate reader (Molecular Devices) and imaged […] for 30 min. Stimulus buffer was added containing 5 mM K^+/0.5 mM Tl^+ and cells were imaged every 1.5 over a 190 second time course The initial rate Tl^+ uptake (Relative Fluorescence Units (RFU) per second) was determined following addition of the stimulus buffer as outlined previously (Conway et al., 2017, supra) (Lee et al., 2022, supra).
Several studies have shown that the activity and plasma membrane accumulation of KCC2 is potentiated via phosphorylation of S940, a process mediated by the activity of protein kinase C and protein phosphatase 1 (Lee et al., 2011, supra; Lee et al., J Biol Chem 282, 29777-29784 (2007); Moore et al., Proc. Natl. Acad. Sci. U.S.A. 115, 10166-10171 (2018); Moore et al., Trends Neurosci. 40, 555-571 (2017); Silayeva et al., Proc. Natl. Acad. Sci. U.S.A. 112, 3523-3528 (2015)). […] Compared to KCC2, effects on KCC3, KCC4, and NKCC1 were only seen at concentrations more than 35-fold that of KCC2 (>100 μM) (FIG. 1G).

In the case of `C[C@@H]1CN(c2nc3c(c(Nc4ccc(C5CCCCC5)cc4)n2)COC3)CCO1` [Compound A, (R)—N-(4-cyclohexylphenyl)-2-(2-methylmorpholino)-5,7-dihydrofuro[3,4-d]pyrimidin-4-amine], the “activity of KCC2-S940A construct” value was “increased the activity”.
